Assay results as given in article PMC12521527, “In vivo self-assembled nano-PROTAC for the dual degradation of AR and HSP90 to overcome castration-resistant prostate cancer resistance” (Signal Transduction and Targeted Therapy, 2025).

Tested on: 22Rv1 xenograft tumor
Experiment: Antitumor efficacy in 22Rv1 xenograft mice
Type: in vivo, BALB/c nude mice
Conditions: comparison study, n = 6; for tumor volume: 20 days, Psa-AR 30 mg/kg i.v. every 2 days x5, enzalutamide 25 mg/kg, pimitespib 15 mg/kg, PBS 1017 mm^3; for median survival: PBS 21 days
Source text: To evaluate the therapeutic potential and superiority of Psa-AR in prostate cancer, we established subcutaneous xenograft tumor models using AR-mutant 22Rv1 cells.[51] All procedures strictly complied with the Guide for the Care and Use of Laboratory Animals and were approved by the Committee for Animal Research of the National Center for Nanoscience and Technology. When the tumor volume reached ~100 mm³, 22Rv1-bearing mice were randomized into three groups (n = 6/group): the PBS control, Psa-AR, and P-AR groups. Treatments were administered via tail vein injection every other day for five cycles. The tumor volume and body weight were monitored every other day for 20 days (Fig. 6a). […] The individual tumor growth curves for each group are presented in Supplementary Fig. 20. No obvious body weight loss was observed during treatment (Fig. 6c). […] To elucidate the mechanistic basis of tumor suppression, we quantitatively assessed AR and HSP90 protein expression in excised tumor tissues through IF. […] This dual-target degradation profile directly correlates with the observed therapeutic efficacy, validating the assembly driven target engagement and degradation strategy. […] To address the critical limitations of conventional PROTACs, particularly the Hook effect-induced nonlinear pharmacokinetics and narrow therapeutic window. We rigorously evaluated the dose-responsive antitumor efficacy of Psa-AR in 22Rv1 xenograft models. Mice bearing subcutaneous tumors received escalating doses (10, 20, or 30 mg/kg) via intravenous administration every 48 h for five consecutive treatment cycles. The tumor volume and body weight were evaluated for 20 days. Tumor volume was suppressed in a dose-dependent manner, with a mean tumor volume of […], a mean tumor volume of 536 mm^3 at 20 mg/kg and a mean tumor volume of 220 mm^3 at 10 mg/kg (Fig. 6h). The individual tumor growth curves for each group are presented in Supplementary Fig. 21. […] IF analysis of tumor sections provided spatially resolved dose-dependent quantification of AR and HSP90 proteolysis. […] Collectively, the dose-dependent tumor suppression and coordinated target proteolysis observed in the 22Rv1 xenograft model mechanistically validated the therapeutic superiority of in situ self-assembled Psa-AR. To systematically evaluate the therapeutic advantages of the dual-protein targeting strategy of Psa-AR through simultaneous degradation of AR and HSP90 in overcoming tumor drug resistance, this study compared the antitumor efficacy of Psa-AR with that of current clinical regimens (including the AR inhibitor enzalutamide, the HSP90 inhibitor pimitespib, and their combination) in 22Rv1 xenograft models (Fig. 7a). The experimental protocol was designed as follows: When the tumor volume reached ~100 mm³, the tumor-bearing mice were
Fig. 6 In vivo antitumor efficacy of Psa-AR. a Schematic illustration of the tumor inoculation and treatment protocol for 22Rv1 xenograft mice. (n = 6 per group) b Observation of the tumor inhibitory effect on 22Rv1 xenograft mice in PBS, P-AR, or Psa-AR (20 mg/kg in 200 μL of PBS) over 20 days of treatment. c Body weight changes in 22Rv1 xenograft mice in different treatment groups over 20 days. d Kaplan‒Meier survival curves of 22Rv1 xenograft mice in different groups over 20 days of treatment. e Immunofluorescence analysis of AR protein levels in 22Rv1 tumor tissues after treatment with PBS, P-AR, or Psa-AR (20 mg/kg in 200 μL of PBS) for 20 days. Scale bar: 20 μm. f Immunofluorescence analysis of the HSP90 protein levels in 22Rv1 tumor tissues after treatment with PBS, P-AR, or Psa-AR (20 mg/kg in 200 μL of PBS) for 20 days. Scale bar: 20 μm. g Terminal deoxynucleotidyl transferase (TdT) dUTP nick-end labeling (TUNEL) staining of tumors after treatment with PBS, P-AR, or Psa-AR (20 mg/kg in 200 μL of PBS) for 20 days. […]

SMILES: CNC(=O)c1ccc(N2C(=S)N(c3ccc(C#N)c(C(F)(F)F)c3)C(=O)C2(C)C)cc1F [enzalutamide, reference compound]
- tumor volume: 765 mm^3
- median survival: 27 days

SMILES: CCc1cc(C(N)=O)ccc1-n1nc(C(C)C)c2c(-n3cnc(-c4cnn(C)c4)c3)ccnc21 [pimitespib, reference compound]
- tumor volume: 742 mm^3
- median survival: 29 days
